Source: US20100317647A1 (priority 2009, published 2010)

Target: human Cat S (Homo sapiens, UniProt P25774)
Assay: Cathepsin enzyme inhibition assay (fluorogenic peptide substrate cleavage)
Type: biochemical
Settings: human Cat S 1 nM; substrate Z-Val-Val-Arg-AMC 20 μM; pH 6.5; fluorescence over 20 minutes
Method: Cathepsin Enzyme Inhibition Assay
Enzyme activity is measured by observing the increase in fluorescence intensity caused by cleavage of a peptide substrate containing a fluorophore whose emission is quenched in the intact peptide.
Assay buffer: 100 mM potassium phosphate pH 6.5, EDTA-Na 5 mM, Triton X-100 0.001%, DTT 5 mM. Enzymes (all at 1 nM): human and mouse Cathepsin S, Cat K, Cat B, Cat L. Substrate (20 μM): Z-Val-Val-Arg-AMC, except for Cat K which uses Z-Leu-Arg-AMC (both from Bachem).
AMC=7-Amino-4-Methyl-Coumarin.
DTT=dithiothreitol. Final volume: 100 μL.
Excitation 360 nm, Emission 465 nm.
Enzyme is added to the substance dilutions in 96-well microtitre plates and the reaction is started with substrate. Fluorescence emission is measured over 20 minutes, during which time a linear increase is observed in the absence of inhibitor. IC50 are calculated by standard methods. Inhibition of human Cat S, mouse Cat S, human Cat K, mouse Cat K, human Cat B, mouse Cat B, human Cat L and mouse Cat L have been measured separately. The results obtained for human Cat S are expressed in the following table.

Sequence of human Cat S (P25774 115-331): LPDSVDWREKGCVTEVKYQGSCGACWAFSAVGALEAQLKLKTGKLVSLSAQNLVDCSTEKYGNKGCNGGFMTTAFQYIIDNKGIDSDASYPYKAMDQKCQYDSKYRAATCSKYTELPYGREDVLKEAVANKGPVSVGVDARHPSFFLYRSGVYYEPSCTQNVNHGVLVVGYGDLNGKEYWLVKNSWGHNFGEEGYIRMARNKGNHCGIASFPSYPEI

IC50 [nM]	Compound
0.1	CO[C@@H]1C[C@H](S(=O)(=O)c2ccc(-c3ccccn3)cc2C(F)(F)F)C[C@H]1C(=O)NC1(C#N)CC1 (racemic) [Example 41, (1R,2R,4R) and (1S,2S,4S)-2-Methoxy-4-(4-pyridin-2-yl-2-trifluoromethyl-benzenesulfonyl)-cyclopentanecarboxylic acid (1-cyano-cyclopropyl)-amide]
5.8	CO[C@@H]1C[C@H](S(=O)(=O)c2ccccc2C(F)(F)F)C[C@H]1C(=O)NC1(C#N)CC1 (racemic) [Example 46, (1R,2R,4R) and (1S,2S,4S)-2-Methoxy-4-(2-trifluoromethyl-benzenesulfonyl)-cyclopentanecarboxylic acid (1-cyano-cyclopropyl)-amide]
120	N#CC1(NC(=O)[C@@H]2C[C@@H](S(=O)(=O)c3ccccc3Cl)C[C@H]2O)CC1 (racemic) [Example 48, (1R,2R,4R) and (1S,2S,4S)-4-(2-Chloro-benzenesulfonyl)-2-hydroxy-cyclopentanecarboxylic acid (1-cyano-cyclopropyl)-amide]
25	CO[C@@H]1C[C@H](S(=O)(=O)c2ccc(Cl)cc2Cl)C[C@H]1C(=O)NC1(C#N)CC1 (racemic) [Example 50, (1R,2R,4R) and (1S,2S,4S)-4-(2,4-Dichloro-benzenesulfonyl)-2-methoxy-cyclopentanecarboxylic acid (1-cyano-cyclopropyl)-amide]
11700	N#CC1(NC(=O)[C@H]2C[C@@H](S(=O)(=O)c3ccccc3Cl)C[C@@H]2O)CC1 (racemic) [Example 52, (1S,2S,4R) and (1R,2R,4S)-4-(2-Chloro-benzenesulfonyl)-2-hydroxy-cyclopentanecarboxylic acid (1-cyano-cyclopropyl)-amide]
24.8	CO[C@@H]1C[C@H](S(=O)(=O)c2ccc(F)cc2Cl)C[C@H]1C(=O)NC1(C#N)CC1 (racemic) [Example 56, (1R,2R,4R) and (1S,2S,4S)-4-(2-Chloro-4-fluoro-benzenesulfonyl)-2-methoxy-cyclopentanecarboxylic acid (1-cyano-cyclopropyl)-amide]
21.8	CO[C@@H]1C[C@H](S(=O)(=O)c2ccc(Oc3ccc(F)cc3)cc2Cl)C[C@H]1C(=O)NC1(C#N)CC1 (racemic) [Example 57, (1R,2R,4R) and (1S,2S,4S)-4-[2-Chloro-4-(4-fluoro-phenoxy)-benzenesulfonyl]-2-methoxy-cyclopentanecarboxylic acid (1-cyano-cyclopropyl)-amide]
6.2	CO[C@@H]1C[C@H](S(=O)(=O)c2ccc(Br)cc2C(F)(F)F)C[C@H]1C(=O)NC1(C#N)CC1 (racemic) [Example 58, (1R,2R,4R) and (1S,2S,4S)-4-(4-Bromo-2-trifluoromethyl-benzenesulfonyl)-2-methoxy-cyclopentanecarboxylic acid (1-cyano-cyclopropyl)-amide]
4	CO[C@@H]1C[C@H](S(=O)(=O)c2ccc(-n3cccn3)cc2Cl)C[C@H]1C(=O)NC1(C#N)CC1 (racemic) [Example 59, (1R,2R,4R) and (1S,2S,4S)-4-(2-Chloro-4-pyrazol-1-yl-benzenesulfonyl)-2-methoxy-cyclopentanecarboxylic acid (1-cyano-cyclopropyl)-amide]
26.5	CO[C@@H]1C[C@H](S(=O)(=O)c2ccc(O[C@H](C)C(F)(F)F)cc2Cl)C[C@H]1C(=O)NC1(C#N)CC1 (racemic) [Example 60, (1R,2R,4R) and (1S,2S,4S)-4-[2-Chloro-4-((R/S)-2,2,2-trifluoro-1-methyl-ethoxy)-benzenesulfonyl]-2-methoxy-cyclopentanecarboxylic acid (1-cyano-cyclopropyl)-amide]

The next lines start with the compound.

Compound	IC50 [nM]
N#CCNC(=O)[C@@H]1CC(S(=O)(=O)c2ccccc2Cl)C[C@H]1COc1ccc(O)nn1 (mixture of isomers) [Example 107, (1R,2R,4R)-4-(2-Chloro-benzenesulfonyl)-2-(6-hydroxy-pyridazin-3-yloxymethyl)-cyclopentanecarboxylic acid cyanomethylamide and (1R,2R,4S)-4-(2-Chloro-benzenesulfonyl)-2-(6-hydroxy-pyridazin-3-yloxymethyl)-cyclopentanecarboxylic acid cyanomethylamide]	20.2
N#CC1(NC(=O)[C@@H]2CC(S(=O)(=O)c3ccccc3Cl)C[C@H]2COc2ccc(O)nn2)CC1 (mixture of isomers) [Example 108, (1R,2R,4S)-4-(2-Chloro-benzenesulfonyl)-2-(6-hydroxy-pyridazin-3-yloxymethyl)-cyclopentanecarboxylic acid(1-cyano-cyclopropyl)-amide and (1R,2R,4R)-4-(2-Chloro-benzenesulfonyl)-2-(6-hydroxy-pyridazin-3-yloxymethyl)-cyclopentanecarboxylic acid(1-cyano-cyclopropyl)-amide]	21.2
Cc1ccc(S(=O)(=O)C2C[C@@H](C(=O)NC3(C#N)CC3)[C@H](C(=O)N3CCC(F)(F)C3)C2)nn1 (mixture of isomers) [Example 224, (1R,2R,4S)-2-(3,3-Difluoro-pyrrolidine-1-carbonyl)-4-(6-methyl-pyridazine-3-sulfonyl)-cyclopentanecarboxylic acid (1-cyano-cyclopropyl)-amide and (1R,2R,4R)-2-(3,3-Difluoro-pyrrolidine-1-carbonyl)-4-(6-methyl-pyridazine-3-sulfonyl)-cyclopentanecarboxylic acid (1-cyano-cyclopropyl)-amide]	32
CO[C@@H]1C[C@H](S(=O)(=O)c2ccc(-c3ccc(F)cn3)cc2C(F)(F)F)C[C@H]1C(=O)NC1(C#N)CC1 (racemic) [Example 30, (1R,2R,4R) and (1S,2S,4S)-4-[4-(5-Fluoro-pyridin-2-yl)-2-trifluoromethyl-benzenesulfonyl]-2-methoxy-cyclopentanecarboxylic acid (1-cyano-cyclopropyl)-amide]	1
N#CCNC(=O)[C@@H]1CC[C@H](S(=O)(=O)c2ccccc2Cl)C1 (racemic) [Example 43, 3-(2-Chloro-benzenesulfonyl)-cyclopentanecarboxylic acid cyanomethyl-amide]	345
CO[C@@H]1C[C@H](S(=O)(=O)c2ccccc2C(F)(F)F)C[C@H]1C(=O)NCC#N (racemic) [Example 47, (1R,2R,4R) and (1S,2S,4S)-2-Methoxy-4-(2-trifluoromethyl-benzenesulfonyl)-cyclopentanecarboxylic acid cyanomethyl-amide]	7.8
N#CCNC(=O)[C@@H]1C[C@@H](S(=O)(=O)c2ccccc2Cl)C[C@H]1O (racemic) [Example 49, (1R,2R,4R) and (1S,2S,4S)-4-(2-Chloro-benzenesulfonyl)-2-hydroxy-cyclopentanecarboxylic acid cyanomethyl-amide]	82.3
CO[C@@H]1C[C@H](S(=O)(=O)c2ccc(Cl)cc2Cl)C[C@H]1C(=O)NCC#N (racemic) [Example 51, (1R,2R,4R) and (1S,2S,4S)-4-(2,4-Dichloro-benzenesulfonyl)-2-methoxy-cyclopentanecarboxylic acid cyanomethyl-amide]	20
N#CCNC(=O)[C@H]1C[C@@H](S(=O)(=O)c2ccccc2Cl)C[C@@H]1O (racemic) [Example 53, (1S,2S,4R) and (1R,2R,4S)-4-(2-Chloro-benzenesulfonyl)-2-hydroxy-cyclopentanecarboxylic acid cyanomethyl-amide]	6690
CCCO[C@@H]1C[C@H](S(=O)(=O)c2ccccc2C(F)(F)F)C[C@H]1C(=O)NC1(C#N)CC1 (racemic) [Example 54, (1R,2R,4R) and (1S,2S,4S)-2-Propoxy-4-(2-trifluoromethyl-benzenesulfonyl)-cyclopentanecarboxylic acid (1-cyano-cyclopropyl)-amide]	2.1
CCCO[C@@H]1C[C@H](S(=O)(=O)c2ccccc2C(F)(F)F)C[C@H]1C(=O)NCC#N (racemic) [Example 55, (1R,2R,4R) and (1S,2S,4S)-2-Propoxy-4-(2-trifluoromethyl-benzenesulfonyl)-cyclopentanecarboxylic acid cyanomethyl-amide]	2.1
CO[C@@H]1C[C@H](S(=O)(=O)c2ccc(-c3nc(C)cs3)cc2C(F)(F)F)C[C@H]1C(=O)NC1(C#N)CC1 (racemic) [Example 61, (1R,2R,4R) and (1S,2S,4S)-2-Methoxy-4-[4-(4-methyl-thiazol-2-yl)-2-trifluoromethyl-benzenesulfonyl]-cyclopentanecarboxylic acid (1-cyano-cyclopropyl)-amide]	0.3
CO[C@@H]1C[C@H](S(=O)(=O)c2ccc(-c3ccc(F)cc3F)cc2C(F)(F)F)C[C@H]1C(=O)NC1(C#N)CC1 (racemic) [Example 62, (1R,2R,4R) and (1S,2S,4S)-4-(2′,4′-Difluoro-3-trifluoromethyl-biphenyl-4-sulfonyl)-2-methoxy-cyclopentanecarboxylic acid (1-cyano-cyclopropyl)-amide]	1.4
CO[C@@H]1C[C@H](S(=O)(=O)c2ccc(-c3ccc(F)cc3)cc2C(F)(F)F)C[C@H]1C(=O)NC1(C#N)CC1 (racemic) [Example 63, (1R,2R,4R) and (1S,2S,4S)-4-(4′-Fluoro-3-trifluoromethyl-biphenyl-4-sulfonyl)-2-methoxy-cyclopentanecarboxylic acid (1-cyano-cyclopropyl)-amide]	1.3
